Key:
Assay type in all cases: cell-based, human
HepG2 = assay: SRB antiproliferative assay, HepG2; conditions: Homo sapiens, HepG2, 96 h treatment, mean ± SEM, read-out: IC50 HepG2
Method: (§1) In light of this substantial change in activity between the meta and para compounds, a more comprehensive analysis of the antiproliferative activity was performed for the meta-/para-3-arylisoquinolinone pairs 2 and 3, 4, and 5, as well as 6. A panel of breast (MDA-MB-231), liver (HepG2, SNU423), lung (A549), and colon (HCT116) cancer cell lines were treated with the five 3-arylisoquinolinone analogs for 96 h followed by the SRB assay. The dose–response curves (including those for MCF-7) are presented in Figure S22, and their relevant IC50 values are listed in Table 1. […] The differential activity between meta- and para-3-arylisoquinolinones was reproduced in the National Cancer Institute (NCI) one-dose screen using a panel of 59 cancer cell lines (Figure S23).
(§2) All cell lines used in the study were human-derived and purchased from ATCC (Manassas, USA). Breast adenocarcinoma MCF-7 and MDA-MB-231 cell lines were cultured in DMEM. Hepatocellular carcinoma HepG2 and SNU423 cell lines were grown in MEME combined with 1% (v/v) nonessential amino acids and RPMI supplemented with 2 mM glutamine, respectively. Lung adenocarcinoma A549 and colorectal carcinoma HCT116 cells were grown in RPMI (+2 mM glutamine). All previous media were further supplemented with 10% heat-inactivated fetal bovine serum. The immortalized, normal liver THLE-3 cells were grown in BEGM (Lonza, Cat# CC-3170) onto precoated vessels according to ATCC’s instructions. Human umbilical vein endothelial cells (HUVECs) were cultured in EGM-2 (Lonza, Cat# CC-3162). All of the cells were maintained at 37 °C and 5% CO2 in a humidified incubator.
(§3) Screening of the antiproliferative activity of 3-arylisoquinolinones was performed using the SRB assay as previously described.[56] Exponentially growing HepG2, SNU423, MDA-MB-231, MCF-7, A549, HCT116, THLE-3, and HUVECs were seeded in 96-well plates at densities of 3000, 2000, 1500, 2500, 1000, 1000, 4000, and 4000 cells/well, respectively. These densities were experimentally selected so that the DMSO-treated cells (control) were approximately 80–90% confluent at the assay’s endpoint, and their optical density (OD) values fell within the assay’s linear range. After overnight incubation, the cells were treated with a range of concentrations of the respective compounds for 96 h, 24 h followed by 72 h compound-free incubation or 24 h (for HUVECs only). After treatment, cell monolayers were fixed with 10% (w/v) trichloroacetic acid for 1 h at 4 °C, washed, and dried. Then, the cells were exposed to 0.4% (w/v) SRB dye (prepared in 1% (v/v) acetic acid; Botium, Cat# 80100) for 15 min followed by several 1% acetic acid washing and then drying. Finally, the cellular protein-bound SRB was thoroughly dissolved in 10 mM Tris base, and the OD values were read at 510 nm using a plate reader (μQuant Microplate Spectrophotometer, Biotek, U.K.) coupled with Gen5 software (BioTek, U.K.). Compound-induced changes in cell growth were inferred from changes in OD values. Cell growth was calculated using the following formula: cell growth (%) = (ODtest/ODcontrol) × 100.

A549 = assay: SRB antiproliferative assay, A549; conditions: Homo sapiens, A549, 96 h treatment, mean ± SEM, read-out: IC50 A549
Method: as §1, §2, §3

MCF-7 = assay: SRB antiproliferative assay, MCF-7; conditions: Homo sapiens, MCF7, 96 h treatment, mean ± SEM, read-out: IC50 MCF-7 (prescreen)
Method: Initially, the human breast cancer cell line MCF-7 was used in a prescreen analysis of the anticancer activity of 3-arylisoquinolinones. The cells were treated with serial concentrations of compounds 2–8 for 96 h prior to the assessment of proliferation using the sulforhodamine B (SRB) assay. For each compound, the concentration required to inhibit cell growth by 50% compared to that of the untreated control cells (IC50) was determined (Table 1).
as §2, §3

Measured: IC50

O=c1[nH]c(-c2ccc(F)cc2)cc2cc(F)ccc12 [compound 5, 6-Fluoro-3-(4-fluorophenyl)isoquinolin-1(2H)-one]
> 50 µM: all assays above

From publication PMC9098178, “SAR of Novel 3-Arylisoquinolinones: meta-Substitution on the Aryl Ring Dramatically Enhances Antiproliferative Activity through Binding to Microtubules” (Journal of Medicinal Chemistry, 2022)
